Reference: patent US20230085307A1, “PYRIDAZINONE COMPOUND AND HERBICIDE” (NISSAN CHEMICAL CORPORATION, priority 2019, published 2023)

Legend:
southern crabgrass = experiment: Test Example 5: herbicidal effect by foliage application, plastic box (Table 20, symbol F); type: in vivo, southern crabgrass (Digitaria ciliaris); conditions: foliage application; for herbicidal effect on F: southern crabgrass (criteria 0-5): 320 g/ha, evaluated three weeks after application
In short: (§1)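 Plants sown in sterilized diluvial soil and grown 14 days in a greenhouse at 25° C to 30° C, then sprayed on the foliage with the compound's emulsion diluted in water to a predetermined herbicide amount. Injury to weeds and crops scored three weeks after application on a visual rating scale.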

Italian ryegrass = experiment: Test Example 5: herbicidal effect by foliage application, plastic box (Table 20, symbol K); type: in vivo, Italian ryegrass (Lolium multiflorum); conditions: foliage application; for herbicidal effect on K: Italian ryegrass (criteria 0-5): 320 g/ha, evaluated three weeks after application
In short: as §1

blackgrass = experiment: Test Example 5: herbicidal effect by foliage application, plastic box (Table 20, symbol J); type: in vivo, blackgrass (Alopecurus myosuroides); conditions: foliage application; for herbicidal effect on J: blackgrass (criteria 0-5): 320 g/ha, evaluated three weeks after application
In short: as §1

wild oat = experiment: Test Example 5: herbicidal effect by foliage application, plastic box (Table 20, symbol I); type: in vivo, wild oat (Avena fatua); conditions: foliage application; for herbicidal effect on I: wild oat (criteria 0-5): 320 g/ha, evaluated three weeks after application
In short: as §1

barnyard grass [1] = experiment: Test Example 5: herbicidal effect by foliage application, plastic box (Table 20, symbol H); type: in vivo, barnyard grass (Echinochloa crus-galli); conditions: foliage application; for herbicidal effect on H: barnyard grass (criteria 0-5): 320 g/ha, evaluated three weeks after application
In short: as §1

velvetleaf = experiment: Test Example 5: herbicidal effect by foliage application, plastic box (Table 20, symbol M); type: in vivo, velvetleaf (Abutilon theophrasti); conditions: foliage application; for herbicidal effect on M: velvetleaf (criteria 0-5): 320 g/ha, evaluated three weeks after application
In short: as §1

green foxtail = experiment: Test Example 5: herbicidal effect by foliage application, plastic box (Table 20, symbol G); type: in vivo, green foxtail (Setaria viridis); conditions: foliage application; for herbicidal effect on G: green foxtail (criteria 0-5): 320 g/ha, evaluated three weeks after application
In short: as §1

false cleavers = experiment: Test Example 5: herbicidal effect by foliage application, plastic box (Table 20, symbol Q); type: in vivo, false cleavers (Galium spurium); conditions: foliage application; for herbicidal effect on Q: false cleavers (criteria 0-5): 320 g/ha, evaluated three weeks after application
In short: as §1

lambsquarters = experiment: Test Example 5: herbicidal effect by foliage application, plastic box (Table 20, symbol O); type: in vivo, lambsquarters (Chenopodium album); conditions: foliage application; for herbicidal effect on O: lambsquarters (criteria 0-5): 320 g/ha, evaluated three weeks after application
In short: as §1

chickweed = experiment: Test Example 5: herbicidal effect by foliage application, plastic box (Table 20, symbol P); type: in vivo, common chickweed (Stellaria media); conditions: foliage application; for herbicidal effect on P: chickweed (criteria 0-5): 320 g/ha, evaluated three weeks after application
In short: as §1

barnyard grass [2] = experiment: Test Example 3: herbicidal effect by foliage application, Wagner pot (Table 18, symbol H); type: in vivo, barnyard grass (Echinochloa crus-galli); conditions: for herbicidal effect on H: barnyard grass: amount of applied herbicide 320 g/ha
In short: (§2)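 Plants were sown in alluvial soil held under 0.1–0.5 cm standing water and grown 14 days in a greenhouse at 25–30 °C. An emulsifiable formulation, water-diluted to the set dose, was then sprayed onto the foliage, and effects were scored three weeks later using previously defined criteria.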

rice flat sedge = experiment: Test Example 3: herbicidal effect by foliage application, Wagner pot (Table 18, symbol E); type: in vivo, rice flat sedge (Cyperus iria); conditions: for herbicidal effect on E: rice flat sedge: amount of applied herbicide 320 g/ha
In short: as §2

persian speedwell = experiment: Test Example 5: herbicidal effect by foliage application, plastic box (Table 20, symbol R); type: in vivo, Persian speedwell (Veronica persica); conditions: foliage application; for herbicidal effect on R: persian speedwell (criteria 0-5): 320 g/ha, evaluated three weeks after application
In short: as §1

redroot pigweed = experiment: Test Example 5: herbicidal effect by foliage application, plastic box (Table 20, symbol N); type: in vivo, redroot pigweed (Amaranthus retroflexus); conditions: foliage application; for herbicidal effect on N: redroot pigweed (criteria 0-5): 320 g/ha, evaluated three weeks after application
In short: as §1

windgrass = experiment: Test Example 5: herbicidal effect by foliage application, plastic box (Table 20, symbol L); type: in vivo, windgrass (Apera spica-venti); conditions: foliage application; for herbicidal effect on L: windgrass (criteria 0-5): 320 g/ha, evaluated three weeks after application
In short: as §1

Chinese sprangletop = experiment: Test Example 3: herbicidal effect by foliage application, Wagner pot (Table 18, symbol D); type: in vivo, chinese sprangletop (Leptochloa chinensis); conditions: for herbicidal effect on D: Chinese sprangletop: amount of applied herbicide 320 g/ha
In short: as §2

[3] = AAH 320 g/ha, three weeks after application

| Compound | herbicidal effect on F: southern crabgrass (criteria 0-5) (southern crabgrass) | herbicidal effect on K: Italian ryegrass (criteria 0-5) (Italian ryegrass) | herbicidal effect on J: blackgrass (criteria 0-5) (blackgrass) | herbicidal effect on I: wild oat (criteria 0-5) (wild oat) | herbicidal effect on H: barnyard grass (criteria 0-5) (barnyard grass [1]) | herbicidal effect on M: velvetleaf (criteria 0-5) (velvetleaf) | herbicidal effect on G: green foxtail (criteria 0-5) (green foxtail) | herbicidal effect on Q: false cleavers (criteria 0-5) (false cleavers) | herbicidal effect on O: lambsquarters (criteria 0-5) (lambsquarters) | herbicidal effect on P: chickweed (criteria 0-5) (chickweed) | herbicidal effect on H: barnyard grass (barnyard grass [2]) | herbicidal effect on E: rice flat sedge (rice flat sedge) | herbicidal effect on R: persian speedwell (criteria 0-5) (persian speedwell) | herbicidal effect on N: redroot pigweed (criteria 0-5) (redroot pigweed) | herbicidal effect on L: windgrass (criteria 0-5) (windgrass) | herbicidal effect on D: Chinese sprangletop (Chinese sprangletop) | further results |
| --- | --- | --- | --- | --- | --- | --- | --- | --- | --- | --- | --- | --- | --- | --- | --- | --- | --- |
| CCCC(=O)Oc1c(C)nn(C)c(=O)c1-c1c(-c2ccc(Oc3ccccc3)cc2)sc2ccccc12 [1-150] | – | – | – | – | – | – | – | – | – | – | – | – | – | – | – | – | F: southern crabgrass, herbicidal effect (southern crabgrass; [3]): 0 (Herbicidal rate of 5% or less (almost no effect)); K: Italian ryegrass, herbicidal effect (Italian ryegrass; [3]): 0 (Herbicidal rate of 5% or less (almost no effect)); J: blackgrass, herbicidal effect (blackgrass; [3]): 0 (Herbicidal rate of 5% or less (almost no effect)); I: wild oat, herbicidal effect (wild oat; [3]): 0 (Herbicidal rate of 5% or less (almost no effect)); H: barnyard grass, herbicidal effect (barnyard grass [1]; [3]): 0 (Herbicidal rate of 5% or less (almost no effect)); M: velvetleaf, herbicidal effect (velvetleaf; [3]): 3 (Herbicidal rate of 40% or more and less than 70%); G: green foxtail, herbicidal effect (green foxtail; [3]): 0 (Herbicidal rate of 5% or less (almost no effect)); Q: false cleavers, herbicidal effect (false cleavers; [3]): 5 (Herbicidal rate of 90% or more (almost completely withered)); O: lambsquarters, herbicidal effect (lambsquarters; [3]): 2 (Herbicidal rate of 20% or more and less than 40%); P: chickweed, herbicidal effect (chickweed; [3]): 5 (Herbicidal rate of 90% or more (almost completely withered)); herbicidal effect on H (barnyard grass), rating 0-5 (barnyard grass [2]; 320 g/ha): 2 (Herbicidal rate of 20% or more and less than 40%); herbicidal effect on E (rice flat sedge), rating 0-5 (rice flat sedge; 320 g/ha): 3 (Herbicidal rate of 40% or more and less than 70%); R: persian speedwell, herbicidal effect (persian speedwell; [3]): 5 (Herbicidal rate of 90% or more (almost completely withered)); N: redroot pigweed, herbicidal effect (redroot pigweed; [3]): 4 (Herbicidal rate of 70% or more and less than 90%); L: windgrass, herbicidal effect (windgrass; [3]): 0 (Herbicidal rate of 5% or less (almost no effect)); herbicidal effect on D (Chinese sprangletop), rating 0-5 (Chinese sprangletop; 320 g/ha): 3 (Herbicidal rate of 40% or more and less than 70%) |
| Cc1ccc2sc(-c3ccc4c(c3)OCCO4)c(-c3c(O)c(C)nn(C)c3=O)c2c1 [2-158] | 0 (Herbicidal rate of 5% or less (almost no effect)) | 0 (Herbicidal rate of 5% or less (almost no effect)) | 0 (Herbicidal rate of 5% or less (almost no effect)) | 0 (Herbicidal rate of 5% or less (almost no effect)) | 0 (Herbicidal rate of 5% or less (almost no effect)) | 2 (Herbicidal rate of 20% or more and less than 40%) | 0 (Herbicidal rate of 5% or less (almost no effect)) | 0 (Herbicidal rate of 5% or less (almost no effect)) | 0 (Herbicidal rate of 5% or less (almost no effect)) | 5 (Herbicidal rate of 90% or more (almost completely withered)) | 0 (Herbicidal rate of 5% or less (almost no effect)) | 4 (Herbicidal rate of 70% or more and less than 90%) | 5 (Herbicidal rate of 90% or more (almost completely withered)) | 0 (Herbicidal rate of 5% or less (almost no effect)) | 0 (Herbicidal rate of 5% or less (almost no effect)) | 1 (Herbicidal rate of 5% or more and less than 20%) | – |
| CCCC(=O)Oc1c(C)nn(C)c(=O)c1-c1c(-c2ccc3c(c2)OCCO3)sc2ccc(C)cc12 [2-159] | 0 (Herbicidal rate of 5% or less (almost no effect)) | 0 (Herbicidal rate of 5% or less (almost no effect)) | 0 (Herbicidal rate of 5% or less (almost no effect)) | 0 (Herbicidal rate of 5% or less (almost no effect)) | 0 (Herbicidal rate of 5% or less (almost no effect)) | 2 (Herbicidal rate of 20% or more and less than 40%) | 0 (Herbicidal rate of 5% or less (almost no effect)) | 0 (Herbicidal rate of 5% or less (almost no effect)) | 0 (Herbicidal rate of 5% or less (almost no effect)) | 4 (Herbicidal rate of 70% or more and less than 90%) | 0 (Herbicidal rate of 5% or less (almost no effect)) | 3 (Herbicidal rate of 40% or more and less than 70%) | 4 (Herbicidal rate of 70% or more and less than 90%) | 5 (Herbicidal rate of 90% or more (almost completely withered)) | 0 (Herbicidal rate of 5% or less (almost no effect)) | 0 (Herbicidal rate of 5% or less (almost no effect)) | – |
